{"source": "patent US20070202047A1", "about": "“Polyamine-substituted ligands for use as contrast agents” (priority 2006, published 2007)", "key": {"[1]": {"tested_on": "subcutaneous MH3924A tumor", "test": "MRI of ACI rats bearing a subcutaneous MH3924A tumor", "format": "in vivo, rat", "details": "0.1 mmol/kg i.v., 2.35 T", "method": "(§1) Animal models. For in vivo tumor studies 2×10^6 MH3924A tumor cells were injected subcutaneously into the right thigh of male ACI rats (Charles River, Sulzfeld, Germany) weighing 220 to 260 g. All animal experiments were performed in compliance with the German Animal Protection Laws (Permission 35-9185.81/G-7-03, Reg.-Praesidium, Karlsruhe, Germany).\nMRI. At 25 days after inoculation, when tumors had reached a diameter of ca. 10-15 mm, the MR imaging experiments were initiated. ACI rats were anesthetized by intravenous injection of ketamin (Ketanest®, 0.1 mg/g body wt.; Parke-Davis, Berlin, Germany). Then a dose of 0.1 mmol/kg Magnevist® or Gadovist® (Schering, Berlin, Germany) or one of the synthesized agents Gd-3.1., Gd-5.1. or Gd-6.1. was injected intravenously into a lateral tail vein. For one experiment a higher dose (0.36 mmol/kg) of Magnevist® was used. Individual rats were examined by MRI at 1 h and 24 h post Gd, in the case of Magnevist® also at ca. 15 min post Gd. Proton imaging studies were performed at 2.35 T (100.3 MHz) with a Biospec 24/40 instrument (Bruker BioSpin MRI, Ettlingen, Germany). […] Two transaxial multislice imaging protocols were applied with a field of view of 70×70 mm, 128 time-domain data points, 96 phase-encoding steps, and 16 slices of 2 mm thickness. A multi-spin-echo sequence was used for proton-density and T2-weighted images (repetition time TR=2 s, 12 echoes with echo times TE of 8, 16, 24, . . . 96 ms, number of averages=1), and a spoiled gradient-echo sequence was used for T1-weighted imaging (TR=212 ms, TE=5 ms, flip angle=60°, number of averages=3). The data were Fourier transformed to give a 128×128 image matrix with 0.55 mm pixel resolution. Analogous T1-weighted images with coronal slices were acquired with a field of view of 80×80 mm and 3-mm slice thickness.\nImaging viewing, ROI analysis and export of TIFF files was performed with the freeware MRIcro from Chris Rorden (http://people.cas.sc.edu/rorden/mricro.html)."}, "human serum albumin": {"target": "T1, human serum albumin (Homo sapiens, UniProt P02768)", "T1 construct": "purchased Behring, Bern, Switzerland", "T1 sequence (P02768 25-609)": "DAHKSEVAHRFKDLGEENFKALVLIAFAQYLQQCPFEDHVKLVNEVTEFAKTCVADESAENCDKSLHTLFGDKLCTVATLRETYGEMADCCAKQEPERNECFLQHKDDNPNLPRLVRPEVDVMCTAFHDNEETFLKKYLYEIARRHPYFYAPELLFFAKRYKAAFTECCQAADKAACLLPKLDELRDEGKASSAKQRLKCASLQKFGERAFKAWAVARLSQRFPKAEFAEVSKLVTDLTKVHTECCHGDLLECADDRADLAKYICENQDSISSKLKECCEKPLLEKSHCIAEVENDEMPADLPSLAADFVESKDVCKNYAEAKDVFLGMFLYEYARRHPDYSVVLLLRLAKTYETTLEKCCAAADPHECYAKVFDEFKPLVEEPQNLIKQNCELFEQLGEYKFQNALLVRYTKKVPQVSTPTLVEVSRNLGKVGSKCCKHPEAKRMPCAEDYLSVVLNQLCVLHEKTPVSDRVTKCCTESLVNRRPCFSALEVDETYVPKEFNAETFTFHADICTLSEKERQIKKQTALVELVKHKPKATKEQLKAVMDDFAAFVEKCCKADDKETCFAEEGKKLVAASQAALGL", "test": "Serum albumin binding (ultrafiltration, ICP-MS)", "format": "in vitro ADME", "details": "20 μM complex, 40 g/L HSA, 37° C.; for binding of complex to human serum albumin: 30 or 90 min", "method": "Serum albumin binding. Solutions containing 20 μM Gd-3.1., Gd-5.1. or Gd-6.1. and 40 g/L human serum albumin (Behring, Bern, Switzerland) were incubated at 37° C. for 30 or 90 min. The solutions were subjected to ultrafiltration (filter cutoff 20 kD; Sartorius, Göttingen, Germany), and the amount of unbound complex was determined in the ultrafiltrate with ICP-MS (n=2).\nHSA Binding: 20 μM solutions of the complexes were incubated at 37° C. for 30 and 90 minutes in a solution of 40 g HSA/L (Behring, Bern; Switzerland). The amount of unbound complex was determined in ultrafiltrates with ICP-MS."}, "[2]": {"test": "Biodistribution and excretion in tumor-bearing ACI rats", "format": "in vivo, rat", "details": "for gadolinium obtained in the faeces / gadolinium obtained in the urine: 24 h after injecting", "method": "as §1\nBiodistribution and excretion data. At 14 days after tumor inoculation, when tumors had reached a diameter of ca. 5-6 mm, the biodistribution experiments were initiated. Each animal (210-250 g) was given an intravenous tail-vein injection of […] Magnevist® (Schering, Berlin, Germany) or […] of Gd-5.1. or Gd-6.1. 1 h and 24 hs post-injection (p.i.), the animals were weighed, sacrificed by cervical dislocation and dissected. Organs or tissues were blotted dry and weighed. Samples containing 100-500 mg of the tumor or organs were digested with concentrated HNO3 (Superselect; Merck, Darmstadt, Germany) and H2O2 under microwave heating with a Mars 5 apparatus (CEM GmbH, Kamp-Lintfort, Germany). To each sample 100 μL of an aqueous solution of rhodium chloride (1 μg/mL) were added so that Rh-103 could be used as an internal quantification standard. Gd-160 measurements were performed with the ICP-MS instrument mentioned above. The gadolinium concentrations were determined using standard curves created prior to tissue analyses. The results were expressed as % ID/g tissue. Urine and faeces were gathered in order to measure the excreted amount of Gd(III)."}, "[3]": {"details": "1 h post i.v. injection, one ACI rat, scaled to Gd dose of 100 μmol/kg"}, "[4]": {"details": "24 h post i.v. injection, one ACI rat"}, "[5]": {"details": "24 h post i.v. injection, one ACI rat, scaled to Gd dose of 100 μmol/kg"}}}
{"smiles": "NCCN(CCN)C(=O)CN(CCN(CCN(CC(=O)[O-])CC(=O)N(CCN)CCN)CC(=O)[O-])CC(=O)[O-].[Gd+3]", "note": "[Gd-5.1]", "values": [{"measurement": "contrast ratio tumor vs. muscle tissue, T1 weighting", "setting": "[1]; 1 h post Gd", "result": 1.11}, {"measurement": "contrast ratio tumor vs. muscle tissue, T1 weighting", "setting": "[1]; 24 h post Gd", "result": 1.08}, {"measurement": "binding of complex to human serum albumin", "setting": "human serum albumin", "result": "no significant binding of complex to protein"}, {"measurement": "Gd concentration, Blood", "setting": "[2]; [3]", "result": 7.8, "unit": "nmol/g"}, {"measurement": "Gd concentration, Bone (femur)", "setting": "[2]; [3]", "result": 2.2, "unit": "nmol/g"}, {"measurement": "Gd concentration, Bone Marrow (femur)", "setting": "[2]; [3]", "result": 0.8, "unit": "nmol/g"}, {"measurement": "Gd concentration, Brain", "setting": "[2]; [3]", "result": 0.5, "unit": "nmol/g"}, {"measurement": "Gd concentration, Kidney (+urine)", "setting": "[2]; [3]", "result": 120.3, "unit": "nmol/g"}, {"measurement": "Gd concentration, Liver", "setting": "[2]; [3]", "result": 4.2, "unit": "nmol/g"}, {"measurement": "Gd concentration, Lung", "setting": "[2]; [3]", "result": 12.7, "unit": "nmol/g"}, {"measurement": "Gd concentration, Muscle (femur)", "setting": "[2]; [3]", "result": 1.6, "unit": "nmol/g"}, {"measurement": "Gd concentration, Small Intestine", "setting": "[2]; [3]", "result": 18.9, "unit": "nmol/g"}, {"measurement": "Gd concentration, Spleen", "setting": "[2]; [3]", "result": 4.7, "unit": "nmol/g"}, {"measurement": "Gd concentration, Tumor (MH3924A)", "setting": "[2]; [3]", "result": 5.5, "unit": "nmol/g"}, {"measurement": "Gd concentration, Urine (cumulative)", "setting": "[2]; [3]", "result": 2116.7, "unit": "nmol/g"}, {"measurement": "gadolinium obtained in the faeces", "setting": "[2]; ACI rat", "result": "about 1%"}, {"measurement": "gadolinium obtained in the urine", "setting": "[2]; ACI rat", "result": 98, "unit": "%"}, {"measurement": "Excretion as % of total dose", "setting": "[2]; [4]", "result": 98, "unit": "%"}, {"measurement": "Gd concentration, Blood", "setting": "[2]; [5]", "result": 0.1, "unit": "nmol/g"}, {"measurement": "Gd concentration, Bone (femur)", "setting": "[2]; [5]", "result": 0.9, "unit": "nmol/g"}, {"measurement": "Gd concentration, Bone Marrow (femur)", "setting": "[2]; [5]", "result": 1.7, "unit": "nmol/g"}, {"measurement": "Gd concentration, Faeces", "setting": "[2]; [5]", "result": 16.6, "unit": "nmol/g"}, {"measurement": "Gd concentration, Kidney (+urine)", "setting": "[2]; [5]", "result": 40.9, "unit": "nmol/g"}, {"measurement": "Gd concentration, Liver", "setting": "[2]; [5]", "result": 2.0, "unit": "nmol/g"}, {"measurement": "Gd concentration, Lung", "setting": "[2]; [5]", "result": 24.2, "unit": "nmol/g"}, {"measurement": "Gd concentration, Small Intestine", "setting": "[2]; [5]", "result": 0.4, "unit": "nmol/g"}, {"measurement": "Gd concentration, Tumor (MH3924A)", "setting": "[2]; [5]", "result": 0.6, "unit": "nmol/g"}, {"measurement": "Gd concentration, Urine (cumulative)", "setting": "[2]; [5]", "result": 537.2, "unit": "nmol/g"}, {"measurement": "agent still present in the tumor", "setting": "[2]; 24 h post injection, MH3924A tumor, ACI rat", "result": "about 0.020 fmol/cell"}, {"measurement": "preferential tissue binding (biodistribution)", "setting": "[2]; ACI rat bearing MH3924A tumor, i.v.", "result": "binds preferentially to lung tissue and parts of the excretory system e.g. small intestine and kidneys"}]}
{"smiles": "NCCCCN(CCCN)C(=O)CN(CCN(CCN(CC(=O)[O-])CC(=O)N(CCCN)CCCCN)CC(=O)[O-])CC(=O)[O-].[Gd+3]", "note": "[Gd-6.1]", "values": [{"measurement": "contrast ratio tumor vs. muscle tissue, T1 weighting", "setting": "[1]; 1 h post Gd", "result": 1.49}, {"measurement": "contrast ratio tumor vs. muscle tissue, T1 weighting", "setting": "[1]; 24 h post Gd", "result": 1.21}, {"measurement": "binding of complex to human serum albumin", "setting": "human serum albumin", "result": "no significant binding of complex to protein"}, {"measurement": "Gd concentration, Blood", "setting": "[2]; [3]", "result": 4.8, "unit": "nmol/g"}, {"measurement": "Gd concentration, Bone (femur)", "setting": "[2]; [3]", "result": 3.3, "unit": "nmol/g"}, {"measurement": "Gd concentration, Bone Marrow (femur)", "setting": "[2]; [3]", "result": 0.9, "unit": "nmol/g"}, {"measurement": "Gd concentration, Kidney (+urine)", "setting": "[2]; [3]", "result": 141.6, "unit": "nmol/g"}, {"measurement": "Gd concentration, Liver", "setting": "[2]; [3]", "result": 6.6, "unit": "nmol/g"}, {"measurement": "Gd concentration, Lung", "setting": "[2]; [3]", "result": 20.2, "unit": "nmol/g"}, {"measurement": "Gd concentration, Small Intestine", "setting": "[2]; [3]", "result": 4.0, "unit": "nmol/g"}, {"measurement": "Gd concentration, Tumor (MH3924A)", "setting": "[2]; [3]", "result": 7.2, "unit": "nmol/g"}, {"measurement": "gadolinium obtained in the faeces", "setting": "[2]; ACI rat", "result": "about 1%"}, {"measurement": "gadolinium obtained in the urine", "setting": "[2]; ACI rat", "result": 98, "unit": "%"}, {"measurement": "Excretion as % of total dose", "setting": "[2]; [4]", "result": 94, "unit": "%"}, {"measurement": "Gd concentration, Blood", "setting": "[2]; [5]", "result": 0.1, "unit": "nmol/g"}, {"measurement": "Gd concentration, Bone (femur)", "setting": "[2]; [5]", "result": 1.0, "unit": "nmol/g"}, {"measurement": "Gd concentration, Bone Marrow (femur)", "setting": "[2]; [5]", "result": 2.3, "unit": "nmol/g"}, {"measurement": "Gd concentration, Faeces", "setting": "[2]; [5]", "result": 41.4, "unit": "nmol/g"}, {"measurement": "Gd concentration, Kidney (+urine)", "setting": "[2]; [5]", "result": 62.3, "unit": "nmol/g"}, {"measurement": "Gd concentration, Liver", "setting": "[2]; [5]", "result": 5.5, "unit": "nmol/g"}, {"measurement": "Gd concentration, Lung", "setting": "[2]; [5]", "result": 5.9, "unit": "nmol/g"}, {"measurement": "Gd concentration, Small Intestine", "setting": "[2]; [5]", "result": 0.1, "unit": "nmol/g"}, {"measurement": "Gd concentration, Tumor (MH3924A)", "setting": "[2]; [5]", "result": 0.8, "unit": "nmol/g"}, {"measurement": "Gd concentration, Urine (cumulative)", "setting": "[2]; [5]", "result": 650.9, "unit": "nmol/g"}]}
{"smiles": "CCN(CC)CCNC(=O)CN(CCN(CCN(CC(=O)[O-])CC(=O)N(CCN)CCN)CC(=O)[O-])CC(=O)[O-].[Gd+3]", "note": "[Gd-3.1]", "values": [{"measurement": "contrast ratio tumor vs. muscle tissue, T1 weighting", "setting": "[1]; 1 h post Gd", "result": 1.22}, {"measurement": "contrast ratio tumor vs. muscle tissue, T1 weighting", "setting": "[1]; 24 h post Gd", "result": 1.11}, {"measurement": "binding of complex to human serum albumin", "setting": "human serum albumin", "result": "no significant binding of complex to protein"}, {"measurement": "complex found to be free (unbound)", "setting": "human serum albumin; ultrafiltrate", "result": "93±6", "unit": "%"}]}
